Data as given in patent publication US9034886B2, “4-aminoquinazoline derivatives and uses thereof” (Shanghai Institute of Pharmaceutical Industry, priority 2011, dated 2015).
Like-named read-outs stand apart in the source and are kept apart here.

How the values were obtained:
[1] = system: K562 human chronic myelogenous leukemia cells; experiment: In vitro anti-proliferative effect, CCK-8 method, K562; format: cell-based; settings: for IC50 / inhibition at 10 µM / inhibition at 100 µM: Homo sapiens, K562
In short: (§1)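 K562 and Hut78 cells exposed to compounds at 100 μM and 10 μM. Percent inhibition of proliferation determined by CCK-8 read-out.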

[2] = system: Colo320 human colorectal cancer cell lines; experiment: In vitro anti-proliferative effect, CCK-8 method, Colo320; format: cell-based
In short: (§2)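 Cells treated with compounds at 100 μM and 10 μM. Percent inhibition of proliferation measured by CCK-8.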

[3] = system: PANC-1 human pancreatic cancer cells; experiment: In vitro anti-proliferative effect, CCK-8 method, PANC-1; format: cell-based; settings: for inhibition at 10 µM / inhibition at 100 µM: Homo sapiens, PANC-1
In short: as §2

[4] = Preliminary pharmacokinetics; settings: in vivo, rat
[5] = system: Hep3B2.1-7 human liver cancer cells; experiment: In vitro anti-proliferative effect, CCK-8 method, Hep3B; format: cell-based
In short: as §2

HDACs = experiment: In vitro inhibition of HDACs (HDAC Inhibitor Drug Screening Kit, Biovision K340-100); format: biochemical
Experimental: The in vitro inhibitory activities of the compounds towards HDACs were tested according to the instructions in the HDAC Inhibitor Drug Screening Kit (Biovision/Catalog #K340-100).
(1) The compounds to be tested were each individually prepared as 2 mM, 200 μM and 40 μM solutions and their inhibitory activities at these concentrations were tested.

[6] = Maximum tolerance dose through intragastrical administration; format: in vivo; settings: mice, administrated intragastrically
In short: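 ICR mice (8˜20 g, both sexes, 10 per group) fasted 6 h, then dosed once intragastrically at 0.3 ml/10 g. Physical signs and deaths recorded at 1, 2 and 4 h, then daily with body weight over 14 days; dead animals necropsied with pathology on suspicious organs.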

[7] = system: Hut78 T lymphocytic leukemia cells; experiment: In vitro anti-proliferative effect, CCK-8 method, Hut78; format: cell-based; settings: for inhibition at 10 µM / inhibition at 100 µM: read-out: Hut-78 (inhibition %)
In short: as §1

[8] = system: Jurkat E6-1 human T-cell lymphoma; experiment: In vitro anti-proliferative effect, CCK-8 method, Jurkat E6-1; format: cell-based
In short: as §2

HDAC1 = HDAC1 (Homo sapiens (Human), UniProt Q13547); experiment: In vitro inhibition of subtype HDAC1 (HDAC1 Inhibitor Drug Screening Kit, Biovision); format: biochemical; settings: for inhibition at 1 µM / inhibition at 10 µM: read-out: % Inhibition towards HDAC1
HDAC1, sequence (Q13547 whole entry): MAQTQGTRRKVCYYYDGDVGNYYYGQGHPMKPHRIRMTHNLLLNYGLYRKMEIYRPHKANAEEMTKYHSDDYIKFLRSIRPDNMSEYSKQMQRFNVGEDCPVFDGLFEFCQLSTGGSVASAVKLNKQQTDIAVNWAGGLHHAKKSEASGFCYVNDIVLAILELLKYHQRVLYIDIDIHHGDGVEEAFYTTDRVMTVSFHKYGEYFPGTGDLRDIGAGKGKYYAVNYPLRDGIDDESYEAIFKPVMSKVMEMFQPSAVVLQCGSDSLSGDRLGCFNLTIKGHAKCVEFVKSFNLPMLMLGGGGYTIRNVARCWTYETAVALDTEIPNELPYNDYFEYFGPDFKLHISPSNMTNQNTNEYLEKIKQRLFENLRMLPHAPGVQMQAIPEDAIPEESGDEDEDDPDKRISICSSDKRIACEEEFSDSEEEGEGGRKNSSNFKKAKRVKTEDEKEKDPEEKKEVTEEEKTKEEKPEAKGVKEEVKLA
Experimental: The in vitro inhibitory activities of the compounds towards the subtype HDAC1 were tested according to the instructions in the HDAC1 Inhibitor Drug Screening Kit (Biovision).
(1) The compounds to be tested were each individually prepared as 10 μM and 1 μM solutions and their inhibitory activities at these concentrations were tested.
Each dilution sample was placed in two wells and the enzyme inhibition IC50 of the compound was tested.

human PC-3 tumors = experiment: Human PC-3 tumors transplanted in nude mice; format: in vivo; settings: 50 mg/kg; for deaths, PC-3 model: 8 mice in each group
[9] = system: PC-3 human prostate cancer; experiment: In vitro anti-proliferative effect, CCK-8 method, PC-3; format: cell-based
In short: as §2

hERG potassium channel = hERG potassium channel (Homo sapiens (Human), UniProt Q12809); experiment: Effects on hERG potassium channel; format: cell-based; settings: for inhibition at 10 µM: human, hERG potassium current, read-out: Maximum inhibition percentage at 10 μM (%); for IC50: read-out: Half inhibition concentration for the effect on hERG potassium current, IC50
hERG potassium channel, sequence (Q12809 whole entry): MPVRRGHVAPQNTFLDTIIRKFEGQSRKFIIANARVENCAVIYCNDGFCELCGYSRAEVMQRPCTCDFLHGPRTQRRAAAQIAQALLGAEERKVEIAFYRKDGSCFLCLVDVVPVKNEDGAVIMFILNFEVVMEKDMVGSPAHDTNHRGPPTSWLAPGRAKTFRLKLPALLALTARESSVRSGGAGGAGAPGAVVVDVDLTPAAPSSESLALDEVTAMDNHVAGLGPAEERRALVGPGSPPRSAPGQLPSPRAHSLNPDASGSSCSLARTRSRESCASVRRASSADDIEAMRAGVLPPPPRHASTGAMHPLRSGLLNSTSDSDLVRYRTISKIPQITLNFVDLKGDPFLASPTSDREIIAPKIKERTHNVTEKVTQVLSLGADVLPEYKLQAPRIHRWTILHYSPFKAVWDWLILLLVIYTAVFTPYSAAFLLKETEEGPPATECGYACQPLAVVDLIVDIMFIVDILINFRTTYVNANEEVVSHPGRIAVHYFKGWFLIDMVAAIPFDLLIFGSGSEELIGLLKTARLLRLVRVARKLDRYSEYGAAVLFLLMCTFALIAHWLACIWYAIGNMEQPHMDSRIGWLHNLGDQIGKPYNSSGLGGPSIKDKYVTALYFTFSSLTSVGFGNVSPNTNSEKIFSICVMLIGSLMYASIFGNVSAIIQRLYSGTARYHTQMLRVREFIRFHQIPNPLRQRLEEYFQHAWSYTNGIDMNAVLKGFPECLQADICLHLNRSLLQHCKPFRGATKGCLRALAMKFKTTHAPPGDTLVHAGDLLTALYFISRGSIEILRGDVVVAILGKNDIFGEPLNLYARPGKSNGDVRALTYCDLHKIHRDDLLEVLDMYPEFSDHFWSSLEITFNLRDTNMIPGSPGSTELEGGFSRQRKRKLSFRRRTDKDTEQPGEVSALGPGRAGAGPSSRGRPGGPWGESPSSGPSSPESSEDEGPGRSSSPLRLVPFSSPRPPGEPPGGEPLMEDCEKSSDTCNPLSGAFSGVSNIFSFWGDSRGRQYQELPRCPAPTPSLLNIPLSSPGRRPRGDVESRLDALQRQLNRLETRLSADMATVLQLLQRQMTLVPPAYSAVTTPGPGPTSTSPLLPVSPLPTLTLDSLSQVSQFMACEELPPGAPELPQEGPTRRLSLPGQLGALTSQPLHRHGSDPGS

[10] = system: A549 human lung cancer cells; experiment: In vitro anti-proliferative effect, CCK-8 method, A549; format: cell-based
In short: as §2

[11] = system: MDA-MB-435s human breast cancer cells; experiment: In vitro anti-proliferative effect, CCK-8 method, MDA-MB-435s; format: cell-based; settings: for inhibition at 10 µM / inhibition at 100 µM: Homo sapiens, MDA-MB-435S
In short: as §2

human A549 tumors = experiment: Human A549 tumors transplanted in nude mice; format: in vivo; settings: 50 mg/kg; for tumor inhibition %, A549 (lung cancer) / deaths, A549 model: nude mice; for deaths, A549 model: 8 mice in each group
[12] = Homo sapiens, COLO 320, Colo320 cell strain, compound at 10 μM, CCK-8 method
[13] = Homo sapiens, COLO 320, Colo320 cell strain, compound at 100 μM, CCK-8 method
[14] = iv, 2 mg/kg, i.v., read-out: Intravenous half-life (converted)
[15] = oral, read-out: Oral half-life (converted)
[16] = Homo sapiens, Hep3B cell strain, compound at 10 μM, CCK-8 method
[17] = Homo sapiens, Hep3B cell strain, compound at 100 μM, CCK-8 method
[18] = Homo sapiens, Jurkat E6.1, 10 μM
[19] = Homo sapiens, Jurkat E6.1, 100 μM
[20] = Homo sapiens, PC-3 cell strain, compound at 10 μM, CCK-8 method
[21] = Homo sapiens, PC-3 cell strain, compound at 100 μM, CCK-8 method

COc1cccc2c(Nc3ccc(C(=O)Nc4ccccc4N)cc3)ncnc12 [Compound V-9, N-(2-aminophenyl)-4-(8-methoxy-quinazoline-4-amino)benzamide]
IC50 [1]: 19.9 µM | inhibition at 10 µM ([1]; 10 μM): -2.8% | inhibition at 100 µM ([1]; 100 μM): 30.3% | IC50 ([2]; Homo sapiens, COLO 320): 88.4 µM | inhibition at 10 µM [2, 12]: 4.4% | inhibition at 100 µM [2, 13]: 4.2% | inhibition at 10 µM ([3]; 10 μM): 22.3% | inhibition at 100 µM ([3]; 100 μM): 26.4% | half-life [4, 14]: 1.27 h | bioavailability ([4]; oral): 19% | half-life [4, 15]: 4.53 h | IC50 ([5]; Homo sapiens, Hep3B): 52.2 µM | inhibition at 10 µM [5, 16]: 27% | inhibition at 100 µM [5, 17]: 26.2% | IC50 (HDACs): 4.91 µM | Inhibition percentage (%) towards HDACs (HDACs; 40 μM): 1.9% | Inhibition percentage (%) towards HDACs (HDACs; 200 μM): 7.8% | Inhibition percentage (%) towards HDACs (HDACs; 2 mM): 50.0% | maximum tolerance dose [6]: over 5000 mg/kg | IC50 ([7]; Homo sapiens, HuT78): 0.231 µM | inhibition at 10 µM ([7]; Homo sapiens, HuT78): 10.8% | inhibition at 100 µM ([7]; Homo sapiens, HuT78, 100 μM): 94% | IC50 ([8]; Homo sapiens, Jurkat E6.1): 12.4 µM | inhibition at 10 µM [8, 18]: 0.9% | inhibition at 100 µM [8, 19]: 22.8% | inhibition at 1 µM (HDAC1): 33.8% | inhibition at 10 µM (HDAC1): 58.3% | tumor inhibition %, PC-3 (human prostate cancer) (human PC-3 tumors): 36.97% | deaths, PC-3 model (human PC-3 tumors): no death | IC50 ([9]; Homo sapiens): 12.2 µM | inhibition at 10 µM [9, 20]: 5.1% | inhibition at 100 µM [9, 21]: 19.3% | inhibition at 10 µM (hERG potassium channel): 21.5 ± 0.4% | IC50 (hERG potassium channel): > 10 µM | IC50 ([10]; Homo sapiens, A549): 29.9 µM | inhibition at 10 µM ([10]; Homo sapiens, A549, 10 μM): 24.6% | inhibition at 100 µM ([10]; Homo sapiens, A549, 100 μM): 42.3% | inhibition at 10 µM ([11]; 10 μM): -11.9% | inhibition at 100 µM ([11]; 100 μM): 11.8%

Nc1ccccc1NC(=O)c1ccc(CNc2ncnc3ccccc23)cc1 [Compound V-27, N-(2-aminophenyl)-4-[(quinazoline-4-amino)methyl]benzamide]
IC50 [1]: 0.437 µM | inhibition at 10 µM ([1]; 10 μM): 45% | inhibition at 100 µM ([1]; 100 μM): 75% | inhibition at 10 µM [2, 12]: 60% | inhibition at 100 µM [2, 13]: 82.3% | inhibition at 10 µM ([3]; 10 μM): 44.4% | inhibition at 100 µM ([3]; 100 μM): 69.5% | half-life [4, 14]: 0.95 h | bioavailability ([4]; oral): 28.6% | half-life [4, 15]: 3.37 h | IC50 ([5]; Homo sapiens, Hep3B): 1.52 µM | inhibition at 10 µM [5, 16]: -12.3% | inhibition at 100 µM [5, 17]: 68.3% | IC50 (HDACs): 1.31 µM | inhibitory activity according to in vitro IC50 value against HDACs compared with MS-275 (HDACs): better inhibitory activities than MS-275 | Inhibition percentage (%) towards HDACs (HDACs; 40 μM): 73.2% | Inhibition percentage (%) towards HDACs (HDACs; 200 μM): 82.6% | Inhibition percentage (%) towards HDACs (HDACs; 2 mM): 91.9% | inhibitory activity on HDACs compared with MS-275 (HDACs; concentrations of 2 mM, 200 μM, and 40 μM): significantly stronger inhibitory activities than MS-275 | maximum tolerance dose [6]: over 2000 mg/kg | IC50 ([7]; Homo sapiens, HuT78): 0.356 µM | inhibition at 10 µM ([7]; Homo sapiens, HuT78): 69.2% | inhibition at 100 µM ([7]; Homo sapiens, HuT78, 100 μM): 89.3% | IC50 ([8]; Homo sapiens, Jurkat E6.1): 0.458 µM | inhibition at 10 µM [8, 18]: 31.6% | inhibition at 100 µM [8, 19]: 87.6% | IC50 (HDAC1): 0.212 µM | inhibition at 1 µM (HDAC1): 58.3% | inhibition at 10 µM (HDAC1): 83% | inhibitory activity against HDAC1 compared with MS-275 (HDAC1; both concentrations 10 μM and 1 μM): superior to that of MS-275 | inhibition at 10 µM [9, 20]: 43.8% | inhibition at 100 µM [9, 21]: 59.9% | inhibition at 10 µM (hERG potassium channel): 29.9 ± 6.7% | IC50 (hERG potassium channel): > 10 µM | antitumor effect on nude mice xenograft model A549 (human A549 tumors): significantly inhibit the growth of tumor | mortality and weight loss in nude mice (human A549 tumors): no mortality and significant weight loss | tumor inhibition %, A549 (lung cancer) (human A549 tumors): 61.83% | deaths, A549 model (human A549 tumors): no death | IC50 ([10]; Homo sapiens, A549): 3.14 µM | inhibition at 10 µM ([10]; Homo sapiens, A549, 10 μM): 82.8% | inhibition at 100 µM ([10]; Homo sapiens, A549, 100 μM): 97.7% | inhibition at 10 µM ([11]; 10 μM): 28.5% | inhibition at 100 µM ([11]; 100 μM): 76.3%

Nc1ccccc1NC(=O)c1ccc(CNC(=O)OCc2cccnc2)cc1 [MS-275, reference compound]
K562 (inhibition %) ([1]; 10 μM): 66.2% | K562 (inhibition %) ([1]; 100 μM): 74.6% | IC50 [2]: 0.522 µM | Colo320 (inhibition %) 10 μM ([2]; Colo320 cell strain, compound at 10 μM, CCK-8 method): 18.0% | Colo320 (inhibition %) 100 μM ([2]; Colo320 cell strain, compound at 100 μM, CCK-8 method): 61.6% | PANC-1 (inhibition %) ([3]; 10 μM): 12.4% | PANC-1 (inhibition %) ([3]; 100 μM): 31.6% | IC50 [5]: 6.82 µM | Hep3B (inhibition %) 10 μM ([5]; Hep3B cell strain, compound at 10 μM, CCK-8 method): 10.8% | Hep3B (inhibition %) 100 μM ([5]; Hep3B cell strain, compound at 100 μM, CCK-8 method): 52.1% | IC50 (HDACs): 3.52 µM | Inhibition percentage (%) towards HDACs (HDACs; 40 μM): 32.5% | Inhibition percentage (%) towards HDACs (HDACs; 200 μM): 60.5% | Inhibition percentage (%) towards HDACs (HDACs; 2 mM): 82.2% | IC50 [7]: 0.528 µM | Hut-78 (inhibition %) ([7]; 100 μM): 85.3% | IC50 [8]: 0.561 µM | Jurkat E6-1 (inhibition %) ([8]; 10 μM): 89.5% | Jurkat E6-1 (inhibition %) ([8]; 100 μM): 96.1% | tumor inhibition %, PC-3 (human prostate cancer) (human PC-3 tumors): 89.60% | deaths, PC-3 model (human PC-3 tumors): 4 | IC50 [9]: 0.502 µM | PC-3 (inhibition %) 10 μM ([9]; PC-3 cell strain, compound at 10 μM, CCK-8 method): 12.5% | PC-3 (inhibition %) 100 μM ([9]; PC-3 cell strain, compound at 100 μM, CCK-8 method): 71.5% | tumor inhibition %, A549 (lung cancer) (human A549 tumors): 79.41% | deaths, A549 model (human A549 tumors): 3 | IC50 [10]: 2.28 µM | A549 (inhibition %) ([10]; 10 μM): 58.9% | A549 (inhibition %) ([10]; 100 μM): 92.3% | 435s (inhibition %) ([11]; 10 μM): 2.7% | 435s (inhibition %) ([11]; 100 μM): 59.3%
